Measured values taken from paper PMC8952293, “A Histone Deacetylase (HDAC) Inhibitor with Pleiotropic In Vitro Anti-Toxoplasma and Anti-Plasmodium Activities Controls Acute and Chronic Toxoplasma Infection in Mice” (International Journal of Molecular Sciences, 2022).

Experiments:
[1] = SPECT/CT imaging of the iodine-125 radiotracer in infected mice; assay type: in vivo, mouse
Procedure: (§1) An isotopic exchange was performed to obtain the radiolabeled iodinated JF363. Briefly, 2 mg of the iodinated molecule was incubated in acetone with 3 mg of cold Na127I and 55.5 MBq of radioactive Na125I (PerkinElmer) for 1 h at 95 °C in a heat block. After evaporation of acetone, the radiotracer was solubilized in corn oil; 5% DMSO was also added to mimic the previous conditions. Quality controls were performed by TLC.
Three female CD1 mice (31.7 ± 1.3 g; Janvier Labs, Le Genest-Saint-Isle, France) and two female mice infected with T. gondii obtained as previously described (19.5 ± 2.1 g) were studied. The previous study gave the radiotracer by oral gavage (administered dose: 0.73 ± 0.25 MBq/g). Before imaging, mice were anesthetized using isoflurane (2% in a mixture of air: O2) and positioned in a thermostatic bed. Whole-body single-photon emission computerized tomography/computed tomography (SPECT/CT) acquisitions were performed 0.5, 3.5, and 24 h after injection using a dedicated system (nanoSPECT-CT; Mediso, Budapest, Hungary). First, CT and SPECT acquisitions were reconstructed and fused using Nucline software (Mediso, Budapest, Hungary). This fusion allowed drawing a volume of interest (VOI in cm^3) on selected/visible organs, and SPECT quantification based on CT was then performed using VivoQuant (InviCRO, Boston, MA, USA). Results were expressed in %ID/cm^3 or %ID/g (percentage of injected dose per cubic centimeter or gram of tissue).

[2] = Stability of the radiolabeled compound in the medium; assay type: physicochemical; conditions: corn oil with 5% DMSO
Procedure: as §1

Toxoplasma = tested on: Toxoplasma; set-up: method as in PMID 22712598; conditions: primary drug used to treat toxoplasmosis; cited from earlier work
Toxoplasma gondii = tested on: Toxoplasma gondii; set-up: method as in PMID 20713670; conditions: cited from earlier work

## COc1cc(CC(=O)Nc2ccc(C(=O)NO)cc2)ccc1I [iodo-JF363]
[1]; Bladder, infected mouse #2, 0.5 h pi
  SPECT quantification: 5.5 %DI/cm^3
[1]; Bladder, infected mouse #2, 3.5 h pi
  SPECT quantification: 19.1 %DI/cm^3
[1]; Bladder, infected mouse #2, 24 h pi
  SPECT quantification: 0.6 %DI/cm^3
[1]; Bladder, infected mouse #3, 0.5 h pi
  SPECT quantification: 6.4 %DI/cm^3
[1]; Bladder, infected mouse #3, 3.5 h pi
  SPECT quantification: 8.2 %DI/cm^3
[1]; Bladder, infected mouse #3, 24 h pi
  SPECT quantification: 3.9 %DI/cm^3
[1]; Heart, infected mouse #2, 0.5 h pi
  SPECT quantification: 3.1 %DI/cm^3
[1]; Heart, infected mouse #2, 3.5 h pi
  SPECT quantification: 2.1 %DI/cm^3
[1]; Heart, infected mouse #2, 24 h pi
  SPECT quantification: 0.2 %DI/cm^3
[1]; Heart, infected mouse #3, 0.5 h pi
  SPECT quantification: 1.0 %DI/cm^3
[1]; Heart, infected mouse #3, 3.5 h pi
  SPECT quantification: 1.0 %DI/cm^3
[1]; Heart, infected mouse #3, 24 h pi
  SPECT quantification: 0.2 %DI/cm^3
[1]; Intestine, infected mouse #2, 0.5 h pi
  SPECT quantification: 16.7 %DI/cm^3
[1]; Intestine, infected mouse #2, 3.5 h pi
  SPECT quantification: 13.8 %DI/cm^3
[1]; Intestine, infected mouse #2, 24 h pi
  SPECT quantification: 0.5 %DI/cm^3
[1]; Intestine, infected mouse #3, 0.5 h pi
  SPECT quantification: 3.8 %DI/cm^3
[1]; Intestine, infected mouse #3, 3.5 h pi
  SPECT quantification: 4.9 %DI/cm^3
[1]; Intestine, infected mouse #3, 24 h pi
  SPECT quantification: 1.5 %DI/cm^3
[1]; Lungs, infected mouse #2, 0.5 h pi
  SPECT quantification: 1.8 %DI/cm^3
[1]; Lungs, infected mouse #2, 3.5 h pi
  SPECT quantification: 1.5 %DI/cm^3
[1]; Lungs, infected mouse #2, 24 h pi
  SPECT quantification: 0.1 %DI/cm^3
[1]; Lungs, infected mouse #3, 0.5 h pi
  SPECT quantification: 0.6 %DI/cm^3
[1]; Lungs, infected mouse #3, 3.5 h pi
  SPECT quantification: 0.5 %DI/cm^3
[1]; Lungs, infected mouse #3, 24 h pi
  SPECT quantification: 0.2 %DI/cm^3
[1]; Mouth, infected mouse #2, 0.5 h pi
  SPECT quantification: 10.0 %DI/cm^3
[1]; Mouth, infected mouse #2, 3.5 h pi
  SPECT quantification: 8.4 %DI/cm^3
[1]; Mouth, infected mouse #2, 24 h pi
  SPECT quantification: 4.7 %DI/cm^3
[1]; Mouth, infected mouse #3, 0.5 h pi
  SPECT quantification: 10.5 %DI/cm^3
[1]; Mouth, infected mouse #3, 3.5 h pi
  SPECT quantification: 6.8 %DI/cm^3
[1]; Mouth, infected mouse #3, 24 h pi
  SPECT quantification: 3.4 %DI/cm^3
[1]; Neck ganglia, infected mouse #2, 0.5 h pi
  SPECT quantification: 8.5 %DI/cm^3
[1]; Neck ganglia, infected mouse #2, 3.5 h pi
  SPECT quantification: 9.5 %DI/cm^3
[1]; Neck ganglia, infected mouse #2, 24 h pi
  SPECT quantification: 1.3 %DI/cm^3
[1]; Neck ganglia, infected mouse #3, 0.5 h pi
  SPECT quantification: 4.0 %DI/cm^3
[1]; Neck ganglia, infected mouse #3, 3.5 h pi
  SPECT quantification: 5.0 %DI/cm^3
[1]; Neck ganglia, infected mouse #3, 24 h pi
  SPECT quantification: 1.1 %DI/cm^3
[1]; Salivary glands, infected mouse #2, 0.5 h pi
  SPECT quantification: 16.7 %DI/cm^3
[1]; Salivary glands, infected mouse #2, 3.5 h pi
  SPECT quantification: 37.6 %DI/cm^3
[1]; Salivary glands, infected mouse #2, 24 h pi
  SPECT quantification: 3.0 %DI/cm^3
[1]; Salivary glands, infected mouse #3, 0.5 h pi
  SPECT quantification: 8.1 %DI/cm^3
[1]; Salivary glands, infected mouse #3, 3.5 h pi
  SPECT quantification: 20.3 %DI/cm^3
[1]; Salivary glands, infected mouse #3, 24 h pi
  SPECT quantification: 3.3 %DI/cm^3
[1]; Stomach, infected mouse #2, 0.5 h pi
  SPECT quantification: 12.1 %DI/cm^3
[1]; Stomach, infected mouse #2, 3.5 h pi
  SPECT quantification: 17.1 %DI/cm^3
[1]; Stomach, infected mouse #2, 24 h pi
  SPECT quantification: 4.2 %DI/cm^3
[1]; Stomach, infected mouse #3, 0.5 h pi
  SPECT quantification: 45.0 %DI/cm^3
[1]; Stomach, infected mouse #3, 3.5 h pi
  SPECT quantification: 42.7 %DI/cm^3
[1]; Stomach, infected mouse #3, 24 h pi
  SPECT quantification: 8.9 %DI/cm^3
[1]; Thyroid, infected mouse #2, 0.5 h pi
  SPECT quantification: 28.9 %DI/cm^3
[1]; Thyroid, infected mouse #2, 3.5 h pi
  SPECT quantification: 18.8 %DI/cm^3
[1]; Thyroid, infected mouse #2, 24 h pi
  SPECT quantification: 26.6 %DI/cm^3
[1]; Thyroid, infected mouse #3, 0.5 h pi
  SPECT quantification: 4.1 %DI/cm^3
[1]; Thyroid, infected mouse #3, 3.5 h pi
  SPECT quantification: 9.9 %DI/cm^3
[1]; Thyroid, infected mouse #3, 24 h pi
  SPECT quantification: 29.5 %DI/cm^3
[1]; both infected mice, 24 h pi
  SPECT activity in neck ganglia: ~ 1%
[1]; infected mouse #2, 30 min pi
  SPECT activity in neck ganglia: 8.5 % ID/cm^3
[1]; infected mouse #2, 3.5 h pi
  SPECT activity in neck ganglia: 9.5 % ID/cm^3
[1]; infected mouse #3, 30 min pi
  SPECT activity in neck ganglia: 4 % ID/cm^3
[1]; infected mouse #3, 3.5 h pi
  SPECT activity in neck ganglia: 5 % ID/cm^3
[1]; oral gavage of the radiotracer, mice
  route of elimination: primarily through the urinary tract
[2]
  stability in the medium: good up to 72 h

## CCc1nc(N)nc(N)c1-c1ccc(Cl)cc1 [pyrimethamine]
Toxoplasma
  IC50: 400 nM

## FR235222
Toxoplasma gondii
  efficiency on parasite proliferation and ex vivo cyst formation: efficient in vitro
